Holding throughout (format): biochemical
Conditions in all cases: no reducing agent

One experiment has as its target T1, F II (Homo sapiens, UniProt P00734).
T1 construct: from tissue; host or cells: human citrated blood plasma
Put plainly: Coagulation factor II activity in plasma after reducing agent + iodoacetic acid. How it is done: (§1) Human blood with anti-coagulating agent (9 parts blood+1 part 3.8% trisodium citrate) is centrifuged and the following tests with plasma were carried out:
(§2) The plasma is divided into 8 ml portions, which are preheated at 37° C. for 5 min. DTT is added in different concentrations, see table 1 below, and is incubated for 5 min. at 37° C. Then iodoacetic acid, 3 mol per mol DTT, is added, and incubation takes place for 15 min. at 37° C. The plasma samples are distributed in portions of about 0.2 ml and are immediately frozen at -70° C. Testing of different coagulation factors is made in known manner.
(§3) The plasma is divided into 8 ml portions, which are preheated at 37° C. for 5 min. DTE is added in different concentrations (see table 2), and is incubated for 5 minutes at 37° C. Then, iodoacetic acid (3 mol per mol DTE) is added and incubation is carried out for 15 minutes at 37° C. The plasma samples are distributed in portions of about 0.2 ml and are immediately frozen at -70° C. Testing of different coagulation factors is made in a manner known per se.
(§4) The plasma is divided into 8 ml portions, which are preheated at 37° C. for 5 minutes. Lipoic acid is added in different concentrations (see table 3), and is incubated for 5 minutes at 37° C. Then, iodoacetic acid (3 mol per mol lipoic acid) is added and incubation is carried out for 15 minutes at 37° C. The plasma samples are distributed in portions of about 0.2 ml and are immediately frozen at -70° C. Testing of different coagulation factors is made in a manner known per se.
(§5) The plasma is divided into 8 ml portions, which are preheated at 37° C. for 5 minutes. Mercaptoethanol is added in different concentrations (see table 4), and is incubated for 5 minutes at 37° C. Then, iodoacetic acid (3 mol per mol mercaptoethanol) is added and incubation is carried out for 15 minutes at 37° C. The plasma samples are distributed in portions of about 0.2 ml and are immediately frozen at -70° C. Testing of different coagulation factors is made in a manner known per se.
(§6) The plasma is divided into 8 ml portions, which are preheated at 37° C. for 5 minutes. Potassium borohydride is added in different concentrations (see table 5, and is incubated for 5 minutes at 37° C. Then, iodoacetic acid (3 mol per mol potassium borohydride) is added and incubation is carried out for 15 minutes at 37° C. The plasma samples are distributed in portions of about 0.2 ml and are immediately frozen at -70° C. Testing of different coagulation factors is made in a manner known per se.

Another experiment deals with T2, F V (Homo sapiens, UniProt P12259).
T2 construct: from tissue; host or cells: human citrated blood plasma
Put plainly: Coagulation factor V activity in plasma after reducing agent + iodoacetic acid. Here is the method:
as §1, §2, §3, §4, §5, §6

The target of a further experiment is T3, F X (Homo sapiens, UniProt P00742).
T3 construct: from tissue; host or cells: human citrated blood plasma
As to the kind of experiment: Coagulation factor X activity in plasma after reducing agent + iodoacetic acid. Here is the method: as §1, §2, §3, §4, §5, §6

Where [1] appears, read: Table 1 B: control plasma + iodoacetic acid, same amount as in F.
Setting [2] is: Table 2 B: control plasma + iodoacetic acid, same amount as in E.
[3] abbreviates: Table 3 B: control plasma + iodoacetic acid, same amount as in E.
[4] abbreviates: Table 4 B: control plasma + iodoacetic acid, same amount as in D.
[5] abbreviates: Table 5 B: control plasma + iodoacetic acid, same amount as in D.

T3 sequence (P00742 235-488 limits assumed): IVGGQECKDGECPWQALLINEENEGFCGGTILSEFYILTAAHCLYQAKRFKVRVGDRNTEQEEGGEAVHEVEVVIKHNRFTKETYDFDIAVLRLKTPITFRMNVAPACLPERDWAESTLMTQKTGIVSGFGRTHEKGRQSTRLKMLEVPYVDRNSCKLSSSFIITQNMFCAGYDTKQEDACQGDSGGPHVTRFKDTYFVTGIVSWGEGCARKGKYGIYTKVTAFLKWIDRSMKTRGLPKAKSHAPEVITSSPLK
T3 sequence (P00742 41-179 limits assumed): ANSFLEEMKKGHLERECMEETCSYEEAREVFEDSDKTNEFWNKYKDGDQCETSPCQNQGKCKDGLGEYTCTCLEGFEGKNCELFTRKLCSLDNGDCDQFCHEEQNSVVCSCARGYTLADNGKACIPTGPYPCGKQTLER
T2 sequence (P12259 29-2224): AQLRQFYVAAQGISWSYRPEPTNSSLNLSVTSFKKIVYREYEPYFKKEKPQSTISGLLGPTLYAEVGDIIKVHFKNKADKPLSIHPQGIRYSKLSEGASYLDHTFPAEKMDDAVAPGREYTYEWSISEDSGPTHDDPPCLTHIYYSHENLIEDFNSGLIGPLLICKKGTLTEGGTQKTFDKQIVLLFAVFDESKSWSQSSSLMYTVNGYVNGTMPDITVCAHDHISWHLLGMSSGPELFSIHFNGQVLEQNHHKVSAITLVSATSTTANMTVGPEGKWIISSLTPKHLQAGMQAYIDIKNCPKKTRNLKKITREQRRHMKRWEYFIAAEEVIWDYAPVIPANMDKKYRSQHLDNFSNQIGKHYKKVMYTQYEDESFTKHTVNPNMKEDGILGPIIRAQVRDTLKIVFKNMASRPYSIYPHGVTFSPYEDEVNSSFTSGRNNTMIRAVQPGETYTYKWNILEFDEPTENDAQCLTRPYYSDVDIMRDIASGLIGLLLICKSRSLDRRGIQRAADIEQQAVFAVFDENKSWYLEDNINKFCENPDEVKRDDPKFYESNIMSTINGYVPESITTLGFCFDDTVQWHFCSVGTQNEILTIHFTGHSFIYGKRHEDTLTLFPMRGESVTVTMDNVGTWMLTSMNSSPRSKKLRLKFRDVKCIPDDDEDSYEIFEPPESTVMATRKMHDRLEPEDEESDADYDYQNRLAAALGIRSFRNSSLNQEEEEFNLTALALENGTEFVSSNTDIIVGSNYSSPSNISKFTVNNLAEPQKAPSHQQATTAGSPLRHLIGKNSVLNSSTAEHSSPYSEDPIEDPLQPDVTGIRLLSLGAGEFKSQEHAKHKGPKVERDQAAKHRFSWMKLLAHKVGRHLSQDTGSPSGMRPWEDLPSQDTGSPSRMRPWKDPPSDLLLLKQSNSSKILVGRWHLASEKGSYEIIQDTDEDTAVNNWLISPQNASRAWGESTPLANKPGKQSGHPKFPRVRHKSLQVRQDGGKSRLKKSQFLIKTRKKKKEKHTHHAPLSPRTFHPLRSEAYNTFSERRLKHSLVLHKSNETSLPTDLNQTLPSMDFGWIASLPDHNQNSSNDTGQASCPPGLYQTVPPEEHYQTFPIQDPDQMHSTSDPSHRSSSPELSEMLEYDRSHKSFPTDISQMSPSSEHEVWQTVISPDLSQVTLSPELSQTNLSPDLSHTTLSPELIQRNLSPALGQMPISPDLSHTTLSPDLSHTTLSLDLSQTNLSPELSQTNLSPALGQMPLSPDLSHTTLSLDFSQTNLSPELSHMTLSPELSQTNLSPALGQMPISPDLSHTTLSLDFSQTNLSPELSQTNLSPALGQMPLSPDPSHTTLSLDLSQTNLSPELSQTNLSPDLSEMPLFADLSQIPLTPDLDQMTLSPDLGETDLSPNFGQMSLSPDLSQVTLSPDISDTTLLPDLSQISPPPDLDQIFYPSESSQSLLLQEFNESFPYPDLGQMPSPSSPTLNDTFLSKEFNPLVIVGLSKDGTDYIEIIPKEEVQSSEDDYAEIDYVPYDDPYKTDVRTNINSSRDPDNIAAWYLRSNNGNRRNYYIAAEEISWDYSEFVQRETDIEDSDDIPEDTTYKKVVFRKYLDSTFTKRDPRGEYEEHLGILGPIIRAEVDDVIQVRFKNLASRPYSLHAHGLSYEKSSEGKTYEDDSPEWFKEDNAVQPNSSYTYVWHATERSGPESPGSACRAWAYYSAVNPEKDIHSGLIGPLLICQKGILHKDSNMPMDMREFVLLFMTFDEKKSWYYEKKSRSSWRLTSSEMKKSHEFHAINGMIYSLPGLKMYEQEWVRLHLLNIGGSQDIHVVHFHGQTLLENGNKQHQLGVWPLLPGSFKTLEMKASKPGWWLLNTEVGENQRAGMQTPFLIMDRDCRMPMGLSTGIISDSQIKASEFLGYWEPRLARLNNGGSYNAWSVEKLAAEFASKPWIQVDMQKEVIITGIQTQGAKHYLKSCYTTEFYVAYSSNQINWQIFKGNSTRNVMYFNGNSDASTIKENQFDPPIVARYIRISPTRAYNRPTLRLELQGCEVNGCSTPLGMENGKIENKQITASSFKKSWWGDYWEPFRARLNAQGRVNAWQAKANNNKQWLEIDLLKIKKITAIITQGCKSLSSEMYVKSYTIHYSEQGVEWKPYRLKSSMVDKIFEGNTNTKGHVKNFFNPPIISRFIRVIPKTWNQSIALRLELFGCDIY

As to `O=C(O)CI` [iodoacetic acid], the “Coagulation factor F II” value at F II (setting [1]) is recorded as 99 % of control; at F II (setting [2]), 100 % of control; at F II (setting [3]), 100 % of control; on F II (setting [4]) it was 88 % of control; at F II (setting [5]) it was 88 % of control. The “Coagulation factor F V” value at F V (setting [1]) was 95 % of control; on F V (setting [2]), 105 % of control; on F V (setting [3]) it was 105 % of control; at F V (setting [4]) it was 67 % of control; on F V (setting [5]) it was 67 % of control. The “Coagulation factor F X” value is 96 % of control at F X (setting [1]); 87 % of control at F X (setting [2]); 87 % of control on F X (setting [3]); 86 % of control at F X (setting [4]); 86 % of control at F X (setting [5]).

Source of the values: patent publication US4229435A, “Preparation of blood fraction” (priority 1978, dated 1980).
